Here are results for 3 compounds from ChEMBL document CHEMBL2074174, “Directional trans-epithelial transport of organic anions in porcine LLC-PK1 cells that co-express human OATP1B1 (OATP-C) and MRP2” (Biochem Pharmacol, 2005).

This series deals with Canalicular multispecific organic anion transporter 1/Solute carrier organic anion transporter family member 1B1 (Homo sapiens, UniProt Q92887+Q9Y6L6). Briefly: TP_TRANSPORTER: Transepithelial Transport (basal to apical) in OATP1B1/MRP2 double transfected LLC-PK1 cell. It counts as functional, cell-based. The note with it: pig.

Take `C[C@]12CC[C@@H]3c4ccc(O)cc4CC[C@H]3[C@@H]1CC[C@@H]2O[C@@H]1O[C@H](C(=O)O)[C@@H](O)[C@H](O)[C@H]1O` [ESTRADIOL 17B GLUCURONIDE]: the Activity entry was “substrate [(+)]”.

Consider `C[C@]12CC[C@@H]3c4ccc(OS(=O)(=O)O)cc4CC[C@H]3[C@@H]1CCC2=O` [ESTRONE SULFURIC ACID], for which the Activity entry is “substrate [(+)]”.

For `C[C@]12CC[C@H](OS(=O)(=O)O)CC1=CC[C@@H]1[C@@H]2CC[C@]2(C)C(=O)CC[C@@H]12` [PRASTERONE SULFURIC ACID], the Activity entry was “substrate [(+)]”.
